Patent publication US7811820B2, “Smooth muscle cell differentiation with CRP, SRF and GATA factors” (Baylor College of Medicine, priority 2003, dated 2010)
Entries after “also recorded” stand apart in the source; their conditions may differ.

Experiments:
Assay type in all cases: cell-based, monkey
[1] = tested on: SM22α promoter; experiment: SM22α promoter luciferase reporter assay in CV1 cells
[2] = tested on: CRP2 nuclear localization in CV1 cells; experiment: Indirect immunofluorescence of V5 epitope-tagged CRP2 localization in transfected CV1 cells; details: for CRP2 accumulation in the nucleus: after one hour of treatment; for CRP2 accumulation / localization in the nucleus: summary statement, no concentration given; for Nuclear localization of epitope-tagged CRP2: cytochalasin D 5 μg/ml, latrunculin B not shown
Description: (§1) FIGS. 9A-9B show signaling mechanisms involved in CRP2 nuclear localization. In FIG. 9A, there is indirect immunofluorescent analysis of V5 epitope-tagged CRP2 (green) in CV1 cells. Untreated control CV1 cells show global localization of CRP2. […] Fold-activation was determined by comparison to the transfection with empty expression vector in lane 1.
In CV1 fibroblasts, overexpressed wild type CRP2 localizes both in the nucleus and in the cytoplasmic compartments, similar to the subcellular distribution pattern of endogenous CRP2 (Chang et al., 2003). When NLS- or NES-tag is added, the fusion CRP2-NLS or CRP2-NES protein becomes over 90% nuclear- or cytoplasmic-exclusive localized, respectively (FIG. 8A). These reagents allow functional analyses to differentiate nuclear versus cytoplasmic functions of CRP2. […] Nuclear distribution of CRP2 is coincident with reporter gene activation.
(§2) To elucidate the mechanism controlling CRP2 shuttling, the inventors treated transiently transfected monkey CV1 fibroblasts with drugs that either affect cytoskeletal integrity ([…], cytochalasin D, latrunculin B) or are inhibitors of nuclear export (leptomycin B) and looked for changes in the distribution of CRP2.

[3] = tested on: SMA promoter; experiment: SMA-luciferase reporter transactivation assay in CV1 cells; details: CV1 cells cotransfected with CRP2, SRF and GATA6, drug added 12 h after cotransfection, lysates 6-24 h post-drug
[4] = tested on: actin cytoskeleton; experiment: Actin cytoskeleton integrity in CV1 cells (rhodamine phalloidin)
Description: as §1, §2

Row | Compound | SM22α promoter activity after drug treatment [1] | cells with CRP2 nuclear localization ([2]; 10 μM in growth medium of transfected CV1 fibroblasts) [%] | CRP2 accumulation in the nucleus [2] | CRP2 accumulation / localization in the nucleus [2] | SMA gene activation / SMA-Luc reporter activity after drug treatment [3] | SMA gene activation / SMA-Luc reporter activity after drug treatment ([3]; listed as Y-26732) | dissolution of the actin cytoskeleton [4] | Nuclear localization of epitope-tagged CRP2 [2] | transfected CV1 cells displaying CRP2 accumulation in the nucleus ([2]; 2 hr of 10 μg/ml treatment) [%]
1 | C[C@@H](N)[C@H]1CC[C@H](C(=O)Nc2ccncc2)CC1 [Y-27632] | further up-regulated | 68 | accumulate in the nucleus | facilitated CRP2 nuclear localization | further upregulates; also recorded: further up-regulated | increases |  |  | 
2 | C=C1[C@@H](C)[C@H]2[C@H](Cc3ccccc3)NC(=O)[C@]23[C@H](OC(C)=O)/C=C/[C@@](C)(O)C(=O)[C@@H](C)C/C=C/[C@H]3[C@@H]1O [cytochalasin D] |  |  | accumulate in the nucleus |  |  |  | completely dissolved the actin cytoskeleton within one hour | observed | 
3 | C/C1=C/C(=O)O[C@@H]2C[C@@H](CC[C@H](C)/C=C\CC1)O[C@@](O)([C@@H]1CSC(=O)N1)C2 [latrunculin B] |  |  |  |  |  |  | completely dissolved the actin cytoskeleton within one hour | observed | 
4 | CCC(=C/[C@H](C)C/C=C/C(C)=C/[C@@H](C)C(=O)[C@@H](C)[C@H](O)[C@@H](C)C/C(C)=C/C(=O)O)/C=C/[C@@H]1OC(=O)C=C[C@@H]1C [leptomycin B] |  |  | accumulate in the nucleus | induced CRP2 accumulation in the nucleus |  |  |  |  | 82
